Source: patent US11278555B2, “Combinational therapies for treatment of cancer comprising a bacteriochlorophyll derivative” (Yeda Research and Development Co. Ltd., priority 2016, dated 2022)

Assays:
[1] = tested on: splenic immune cells of 4T1-bearing mice; assay: FACS profile of splenic immune cell populations in 4T1-bearing mice after STL-6014 PDT and Gemzar; assay type: in vivo
Method: • (i) Bacteriochlorophyll Derivatives—The Bchl derivatives and RGD-conjugates thereof were provided by Steba Biotech (Rehovot, Israel). […] Concentration was verified by spectrophotometric measurement. STL-7012 was provided as dipotassium salt. Working solution was prepared by dissolving STL-7012 K^+ salt in 5% mannitol solution (1 mg/ml). […] WST11 was supplied as a powder and kept in the dark at −20° C. Stock was prepared by dissolving WST11 in DDW containing 5% glucose and 0.67% mannitol, aliquoted and lyophilized. Working solution was reconstituted with DDW and the concentration of solution was confirmed spectrophotometrically. Alternatively, Clinical WST11 (batch: P00611, and 10-130611) was supplied as lyophilized formulation. Material was dissolved in 5% dextrose, aliquoted and stored at −20° C. At the day of treatment the aliquot was thawed, filtered and the concentration of solution was confirmed spectrophotometrically. • (ii) Chemotherapeutic drugs preparation and storage—Gemcitabine (GEM, Gemzar®, Lilly) was purchased from a local pharmacy as a powder, dissolved in saline to a concentration of 38 mg/ml, aliquoted and stored at −20° C. Aliquots were thawed, diluted with saline to a desired concentration and used on the same day at a dose of 75 mg/kg. Cyclophosphamide (CTX, Endoxan®, Baxter Oncology Gmbh, Germany) was purchased from a local pharmacy. A stock solution of 20 mg/ml was prepared by dissolving in 0.9% NaCl, aliquoted and stored at −20° C. Aliquots were thawed, diluted with saline if needed to a desired concentration and used on the same day prepared at indicated doses. • (iii) Murine cell lines—Mammary luciferase (luc)-labeled 4T1 cell line (4T1-Luc) was a kind gift from Dr. Zvi Granot (Faculty of Medicine, The Hebrew University of Jerusalem, Israel); melanoma B16-F10 cell line was obtained from the American Type Culture Collection (ATCC, Manassas, Va.); bladder MB49 cell line was a kind gift from James Allison (MSKCC, New York, USA), and luc-labeled MB49-cell line was established using the murine stem cell virus (MSCV)-puromycin-luc-GFP construct (kindly provided by Dr. Emily Cheng, Human Oncology and Pathogenesis Program, MSKCC). 4T1 and MB49 cells were maintained in DMEM medium and B16-F10 cells in RPMI medium supplemented with 1 mmol/L sodium pyruvate, 10% fetal calf serum (FCS), 250 μg/ml hygromycin, 0.06 mg/ml penicillin and 0.1 mg/ml streptomycin. The cells were grown as monolayer at 37° C. in a humidified atmosphere (5% CO2, 95% air). • (iv) Murine tumor models—Female, Balb/c mice (6-8 week old) were grafted either subcutaneously (s.c.) into the right hind leg or orthotopically with 1×10^6 4T1 cells suspended in 50 or 1000 PBS. For the rechallenge study, 2×10^5 4T1 cells were orthotopically grafted. For bladder cancer model, 5×10^4 of MB49 or MB49-luciferase cell line were s.c. injected into the right flank of C57B/6 male mice (7-8 weeks old, Taconic, Hudson, N.Y.) 15 days prior to VTP treatment. For the efficacy study of VTP in immune compromised mice, the same number of MB49 cells was injected in the flank of Rag^−/− on C57B/6 background or C57B/6 male mice (7-8 week old, Jackson Laboratory, Bar Harbor, Me.). […] Whole body imaging of luciferase-transfected tumors and metastases were recorded five minutes following 75 mg Kg^−1 intraperitoneal (i.p.) injection of D-luciferin with respective filter sets. • (vi) PDT treatment protocol: 4T1-Luc cells were grafted in the mammary pad of Balb/c mice. […]

[2] = tested on: MB49 tumors; assay: WST11 VTP, Gemzar and combination in immune compromised Rag1 KO versus WT mice bearing MB49 tumors; assay type: in vivo; settings: Kaplan-Meier
Method: (§1) • (i) Bacteriochlorophyll Derivatives—The Bchl derivatives and RGD-conjugates thereof were provided by Steba Biotech (Rehovot, Israel). […] Concentration was verified by spectrophotometric measurement. STL-7012 was provided as dipotassium salt. Working solution was prepared by dissolving STL-7012 K^+ salt in 5% mannitol solution (1 mg/ml). […] WST11 was supplied as a powder and kept in the dark at −20° C. Stock was prepared by dissolving WST11 in DDW containing 5% glucose and 0.67% mannitol, aliquoted and lyophilized. Working solution was reconstituted with DDW and the concentration of solution was confirmed spectrophotometrically. Alternatively, Clinical WST11 (batch: P00611, and 10-130611) was supplied as lyophilized formulation. Material was dissolved in 5% dextrose, aliquoted and stored at −20° C. […] Whole body imaging of luciferase-transfected tumors and metastases were recorded five minutes following 75 mg Kg^−1 intraperitoneal (i.p.) injection of D-luciferin with respective filter sets. • (vi) PDT treatment protocol: 4T1-Luc cells were grafted in the mammary pad of Balb/c mice. […]

[3] = tested on: 4T1-luc tumors at the mammary pad; assay: WST11 VTP combined with CTX or Gemzar in mice bearing 4T1-luc tumors in the mammary pad (Scheme 5); assay type: in vivo, Balb/C mice; settings: VTP alone, 9 mg/kg WST11, 200 mW/cm^2 for 15 min
Method: as §1

In the case of `Nc1ccn([C@@H]2O[C@H](CO)[C@@H](O)C2(F)F)c(=O)n1` [Gemzar, Gemcitabine], the “percentage of G-MDSC/neutrophils and M-MDSC in spleen compared to control” value ([1]; first week post treatment) is reported as “significantly reduced”, the “effect on Treg populations in spleen compared with controls” value ([1]; mouse, in vivo) is reported as “Much smaller effects” and the “impact on MDSCs in spleen relative to control” value ([1]; second week post treatment) is reported as “diminished”.

For `CCC1c2cc3[n-]c(c(CC(=O)OC)c4nc(cc5[n-]c(cc(n2)C1C)c(C(C)=O)c5C)C(C)C4CCC(=O)[O-])c(C(=O)NCCS(=O)(=O)[O-])c3C.[K+].[K+].[Pd+2]` (centres unmarked) [WST11, Palladium 3^1-oxo-15-methoxycarbonylmethyl-rhodobacteriochlorin 13^1-(2-sulfoethyl) amide dipotassium salt], the “overall survival of immune compromised (Rag1 KO) mice compared with WT mice” value [2] was “statistically significant decrease” and the survival [3] was “very limited survival”.
